Source: ChEMBL document CHEMBL5241107, “Discovery of an eIF4A Inhibitor with a Novel Mechanism of Action” (J Med Chem, 2021)
Activity calls are given as the source filed them. The rule behind the calls is not given here.

Tests used:
[1] = molecular target: T1, Eukaryotic initiation factor 4A-I (Homo sapiens, UniProt P60842); assay: Inhibition of human recombinant N-terminal His6-tagged eIF4A expressed in Escherichia coli BL21 CodonPlus cells using ATP and yeast RNA as substrate preincubated with enzyme for 20 mins followed by susbtrate addition and measured after 4 hrs by Malachite green ATPase assay
T1 sequence (P60842 whole entry): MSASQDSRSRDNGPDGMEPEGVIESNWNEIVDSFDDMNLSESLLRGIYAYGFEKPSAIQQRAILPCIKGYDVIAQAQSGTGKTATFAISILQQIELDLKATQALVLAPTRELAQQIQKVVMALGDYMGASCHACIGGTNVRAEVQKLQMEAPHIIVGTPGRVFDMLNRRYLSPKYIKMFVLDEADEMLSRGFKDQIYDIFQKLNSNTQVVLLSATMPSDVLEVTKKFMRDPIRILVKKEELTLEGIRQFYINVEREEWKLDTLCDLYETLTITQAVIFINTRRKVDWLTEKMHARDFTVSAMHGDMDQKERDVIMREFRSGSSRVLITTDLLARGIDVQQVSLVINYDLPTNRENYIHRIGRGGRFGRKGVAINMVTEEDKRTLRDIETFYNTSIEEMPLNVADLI

BJAB = assay: Cytotoxicity against human BJAB cells assessed as reduction in cell viability measured after 72 hrs by CellTiter-Glo luminescent assay; assay type: functional, cell-based
Reticulocyte [2] = assay: Inhibition of cap-dependent translation of firefly luciferase in rabbit reticulocyte lysates using bicistronic luciferase reporter [pSP/(CAG)33/FF/HCV/Ren.pA51] at 600 uM incubated for 90 mins by luciferase reporter gene based luminescence analysis; assay type: functional, subcellular; conditions: Oryctolagus cuniculus
Reticulocyte [3] = assay: Inhibition of IRES-dependent translation of renilla luciferase in rabbit reticulocyte lysates using bicistronic luciferase reporter [pSP/(CAG)33/FF/HCV/Ren.pA51] at 600 uM incubated for 90 mins by luciferase reporter gene based luminescence analysis; assay type: functional, subcellular; conditions: Oryctolagus cuniculus
[4] = molecular target: T1, Eukaryotic initiation factor 4A-I; assay: Inhibition of helicase activity of human recombinant N-terminal His6-tagged eIF4A expressed in Escherichia coli BL21 CodonPlus cells assessed as increase in double stranded signal using Cy3-labeled RNA strand and unlabeled DNA strand by native PAGE analysis
[5] = molecular target: T1, Eukaryotic initiation factor 4A-I; assay: Inhibition of helicase activity of human recombinant N-terminal His6-tagged eIF4A expressed in Escherichia coli BL21 CodonPlus cells using Cy3-labeled RNA strand and unlabeled DNA strand by native PAGE analysis
[6] = molecular target: T1, Eukaryotic initiation factor 4A-I; assay: Inhibition of helicase activity of human recombinant N-terminal His6-tagged eIF4A expressed in Escherichia coli BL21 CodonPlus cells assessed as decrease in single stranded signal using Cy3-labeled RNA strand and unlabeled DNA strand by native PAGE analysis
[7] = molecular target: T1, Eukaryotic initiation factor 4A-I; assay: Competitive inhibition of human recombinant N-terminal His6-tagged eIF4A expressed in Escherichia coli BL21 CodonPlus cells assessed as […] with constant Vmax of RNA using 250 uM ATP and varying concentration of yeast RNA as substrate preincubated with enzyme for 20 mins followed by substrate addition and measured after 1 to 7 hrs by Malachite green ATPase assay; conditions: time 80-440 min
[8] = molecular target: T1, Eukaryotic initiation factor 4A-I; assay: Uncompetitive inhibition of human recombinant N-terminal His6-tagged eIF4A expressed in Escherichia coli BL21 CodonPlus cells assessed as decrease in Km and Vmax of ATP using varying concentrations of ATP and 250 ug/ml yeast RNA as substrate preincubated with enzyme for 20 mins followed by substrate addition and measured after 1 to 7 hrs by Malachite green ATPase assay; conditions: time 80-440 min
[9] = molecular target: T1, Eukaryotic initiation factor 4A-I; assay: Displacement of MANT-ATP from human recombinant N-terminal His6-tagged eIF4A expressed in Escherichia coli BL21 CodonPlus cells at 1 mM preincubated with enzyme and yeast RNA for 20 mins followed by MANT-ATP addition for 30 mins by fluorescence polarization assay; conditions: time 50.0 min
[10] = molecular target: T1, Eukaryotic initiation factor 4A-I; assay: Binding affinity to eIF4A in human A549 cells assessed as increase in thermal stability of the protein at 100 nM incubated for 90 mins by CETSA analysis; assay type: cell-based
Reticulocyte [11] = assay: Inhibition of eIF4A in rabbit reticulocyte lysate assessed as inhibition of cap-dependent translation of firefly luciferase using bicistronic luciferase reporter [pSP/(CAG)33/FF/HCV/Ren.pA51] at 100 nM incubated for 90 mins by luciferase reporter gene based luminescence analysis; assay type: subcellular; conditions: Oryctolagus cuniculus
Reticulocyte [12] = assay: Inhibition of IRES-dependent translation of renilla luciferase in rabbit reticulocyte lysates using bicistronic luciferase reporter [pSP/(CAG)33/FF/HCV/Ren.pA51] at 100 nM incubated for 90 mins by luciferase reporter gene based luminescence analysis; assay type: functional, subcellular; conditions: Oryctolagus cuniculus
[13] = Homo sapiens, BJAB, 72 h, read-out: EC50

Structure (SMILES) | IC50 [1] | also measured
CCCc1ccc(-c2ccc(-c3cc(C(=O)O)c4cc([N+](=O)[O-])ccc4n3)o2)cc1 | 40.9 µM | –
CCCCc1ccc(-c2ccc(-c3cc(C(=O)O)c4ccc(Br)cc4n3)o2)cc1 | 33 µM | –
O=C(O)c1cc(-c2ccc(-c3cccc(-c4ccccc4)c3)o2)nc2ccc([N+](=O)[O-])cc12 | 25.8 µM | –
CCCCc1ccc(-c2ccc(-c3cc(C(=O)O)c4cc(N)ccc4n3)o2)cc1 | > 150 µM | EC50 (BJAB; bjab): Not Active
CCCCc1ccc(-c2ccc(-c3cc(C(=O)O)c4cc(C)ccc4n3)o2)cc1 | 105 µM | –
O=C(O)c1cc(-c2ccc(-c3ccc4c(c3)OCO4)o2)nc2ccc([N+](=O)[O-])cc12 | > 150 µM | –
O=C(O)c1cc(-c2ccc(-c3ccccc3Oc3ccccc3)o2)nc2ccc([N+](=O)[O-])cc12 | 21 µM | –
O=C(O)c1cc(-c2ccc(-c3ccccc3)o2)nc2ccc([N+](=O)[O-])cc12 | > 150 µM | –
CCCCc1ccc(-c2ccc(-c3cc(C(=O)O)c4cc(-c5ccccc5)ccc4n3)o2)cc1 | 124 µM | –
CCCCc1ccc(-c2ccc(-c3cc(C(=O)O)c4cccc(C(F)(F)F)c4n3)o2)cc1 | 26.9 µM | –
CCCCc1ccc(-c2ccc(-c3cc(C(=O)O)c4cc(F)c(F)cc4n3)o2)cc1 | 54 µM | –
CCCCc1ccc(-c2ccc(-c3cc(C(=O)O)c4ccc(F)cc4n3)o2)cc1 | 46.6 µM | –
CCCCc1ccc(-c2cccc(-c3cc(C(=O)O)c4cc([N+](=O)[O-])ccc4n3)n2)cc1 | 85.8 µM | –
CCCCc1ccc(-c2ccc(-c3cc(C(=O)O)c4cc(OC(F)(F)F)ccc4n3)o2)cc1 | > 150 µM | –
CCCCc1ccc(-c2ccc(-c3cc(C(=O)O)c4cccc([N+](=O)[O-])c4n3)o2)cc1 | – | EC50 [1]: 27.5 µM
O=C(O)c1cc(-c2ccc(-c3cccc4ccccc34)o2)nc2ccc([N+](=O)[O-])cc12 | 36.7 µM | –
CCCCc1ccc(-c2ccc(-c3cc(C(=O)O)c4cccc(Br)c4n3)o2)cc1 | 23.8 µM | –
CCCCc1ccc(-c2ccc(-c3cc(C(=O)O)c4cc([N+](=O)[O-])ccc4n3)s2)cc1 | 62.3 µM | –
CCCCc1ccc(-c2ccc(-c3cc(C(=O)O)c4cc([N+](=O)[O-])ccc4n3)cc2)cc1 | 54.8 µM | –
CCCCc1ccc(-c2ccc(-c3cc(C(=O)O)c4cc(Cl)ccc4n3)o2)cc1 | 44 µM | –
C[C@@H]1C[C@@H]([C@H](O)CC2CC(=O)NC(=O)C2)C(=O)[C@@H](C)C1 | – | inhibition (Reticulocyte [2]): Active; inhibition (Reticulocyte [3]): Active
CCCCc1ccc(-c2ccc(-c3cc(C(=O)OCC)c4cc(Br)ccc4n3)o2)cc1 | 129 µM | –
CCCCc1ccc(-c2ccc(-c3cc(C(=O)O)c4cccc(Cl)c4n3)o2)cc1 | 73.3 µM | –
CCCCc1ccc(-c2ccc(-c3cc(C(=O)OCC)c4cc([N+](=O)[O-])ccc4n3)o2)cc1 | > 150 µM | EC50 (BJAB; [13]): > 10 µM
CCCCc1ccc(-c2ccc(-c3cc(C(=O)O)c4cc(NC(C)=O)ccc4n3)o2)cc1 | 126 µM | EC50 (BJAB; bjab): Not Active
CCCCc1ccc(-c2ccc(-c3cc(C(=O)O)c4ccccc4n3)o2)cc1 | > 150 µM | –
CCCCc1ccc(-c2cncc(-c3cc(C(=O)O)c4cc([N+](=O)[O-])ccc4n3)c2)cc1 | > 150 µM | –

Structure (SMILES) | IC50 [1] | also measured
CCCCc1ccc(-c2ccc(-c3cc(C(=O)O)c4ccc(C(F)(F)F)cc4n3)o2)cc1 | 61 µM | –
CCCCc1ccc(-c2ccc(-c3cc(C(=O)O)c4cc([N+](=O)[O-])ccc4n3)[nH]2)cc1 | 62.5 µM | –
CCCCc1ccc(-c2ccc(-c3cc(C(=O)O)c4cc(C)cc(C)c4n3)o2)cc1 | 111 µM | –
O=C(O)c1cc(-c2ccc(-c3ccc(Oc4ccccc4)cc3)o2)nc2ccc([N+](=O)[O-])cc12 | 12.7 µM | –
CCCCc1ccc(-c2ccc(-c3cc(C(=O)O)c4cc(F)ccc4n3)o2)cc1 | 54.1 µM | –
CCCCc1ccc(-c2ccc(-c3cc(C(=O)O)c4cc(Br)ccc4n3)o2)cc1 | – | inhibition [4]: Active; IC50 [5]: 28.7 µM; inhibition [6]: Active; inhibition [7]: Active; EC50 (BJAB; [13]): 2.13 µM; inhibition [8]: Active
CCCOc1ccccc1-c1ccc(-c2cc(C(=O)O)c3cc([N+](=O)[O-])ccc3n2)o1 | 45.5 µM | –
O=C(O)c1cc(-c2ccc(-c3cccc(Oc4ccccc4)c3)o2)nc2ccc([N+](=O)[O-])cc12 | 22.2 µM | –
Nc1cccc(-c2ccc(-c3cc(C(=O)O)c4cc([N+](=O)[O-])ccc4n3)o2)c1 | > 150 µM | EC50 (BJAB; bjab): Not Active
CC(C)(C)OC(=O)Nc1ccc(-c2ccc(-c3cc(C(=O)O)c4cc([N+](=O)[O-])ccc4n3)o2)cc1 | 140 µM | –
O=C(O)c1cc(-c2ccc(-c3ccc(-c4ccccc4)cc3)o2)nc2ccc([N+](=O)[O-])cc12 | 66.1 µM | –
CCCOc1ccc(-c2ccc(-c3cc(C(=O)O)c4cc([N+](=O)[O-])ccc4n3)o2)cc1 | 45.7 µM | –
CCCCc1ccc(-c2ccc(-c3cc(C(=O)O)c4cc([N+](=O)[O-])ccc4n3)cn2)cc1 | 60 µM | –
Nc1ncnc2c1ncn2[C@@H]1O[C@H](COP(=O)(O)OP(=O)(O)O)[C@@H](O)[C@H]1O | – | inhibition [9]: Active
CCCCc1ccc(-c2ccc(-c3cc(C(=O)O)c4c(Cl)cccc4n3)o2)cc1 | 135 µM | –
CC(C)(C)OC(=O)Nc1cccc(-c2ccc(-c3cc(C(=O)O)c4cc([N+](=O)[O-])ccc4n3)o2)c1 | 110 µM | –
CCCCc1ccc(-c2ccc(-c3cc(C(=O)O)c4cc(OC)ccc4n3)o2)cc1 | 53.5 µM | –
CCCCc1ccc(-c2ccc(-c3cc(C(=O)O)c4cc(I)ccc4n3)o2)cc1 | 41.5 µM | –
CCCCCc1ccc(-c2ccc(-c3cc(C(=O)O)c4cc([N+](=O)[O-])ccc4n3)o2)cc1 | 8.77 µM | –
CCCCc1ccc(-c2ccc(-c3cc(C(=O)O)c4cc(Cl)c(Cl)cc4n3)o2)cc1 | 90.1 µM | –
CCCOc1cccc(-c2ccc(-c3cc(C(=O)O)c4cc([N+](=O)[O-])ccc4n3)o2)c1 | 62.1 µM | –
Nc1ccc(-c2ccc(-c3cc(C(=O)O)c4cc([N+](=O)[O-])ccc4n3)o2)cc1 | > 150 µM | EC50 (BJAB; bjab): Not Active
COC(=O)[C@H]1[C@@H](O)[C@@]2(O)c3c(OC)cc(O[C@@H]4O[C@@H]([C@H](O)CO)CO[C@H]4OC)cc3O[C@@]2(c2ccc(OC)cc2)[C@@H]1c1ccccc1 | – | Activity [10]: Active; inhibition (Reticulocyte [11]): Active; inhibition (Reticulocyte [12]): inactive
CCCCc1ccc(-c2ccc(-c3cc(C(=O)O)c4cc(CC)ccc4n3)o2)cc1 | 147 µM | –
CCCCc1ccc(-c2cccc(-c3cc(C(=O)O)c4cc([N+](=O)[O-])ccc4n3)c2)cc1 | 74.1 µM | –
CCCCc1ccc(-c2ccc(-c3cc(C(=O)O)c4cc(C(C)C)ccc4n3)o2)cc1 | 107 µM | –
